Experimental data from US20260115202A1, “TOPICAL COMPOSITIONS COMPRISING AN ESTETROL COMPONENT AND USE OF SAID COMPOSITIONS FOR WOUND HEALING” (NEURALIS SA, priority 2022, published 2026).

Key:
[1] = system: LPS-induced delayed wound healing mice model; assay: In vivo LPS model, single or repeated administration: wound histology at day 3; conditions: single administration
Description: The in vivo LPS treatment protocol (delayed wound healing model) as presented in example 4 has been repeated with the following groups of animals: • Double placebo group (untreated control). • LPS control (LPS, placebo treatment). • LPS with topical EstroGel (estradiol gel, contains 0.06% 17β-estradiol as hemihydrate in a hydro-alcoholic gel), repeated administration for 4 days. • LPS with topical AG26 (E4 at 0.06%), single administration. • LPS with topical AG26 (E4 at 0.06%), repeated administration for 4 days. • LPS with topical AG28 (E4 at 0.06%), single administration. • LPS with topical AG28 (E4 at 0.06%), repeated administration for 4 days. On day 0 only (single administration), or on days −1, 0, 1 and 2 (repeated administration), topical EstroGel. AG26. AG28 or corresponding placebo was applied in a thin layer over the top of the wounds (60 μl total: 30 μl/wound) during observations. On day 3, mice were humanely culled via rising concentration of CO2 and cervical dislocation. Uteri as well as non-wounded and wound tissue samples were processed as described under example 4. […] Next, we evaluated wound closure from histological samples (FIG. 13). Histological sections were subjected to K14 immunohistochemistry to visualise the newly forming epidermis.

[2] = system: wound expression of M1 (TNF-α and IL1-β) and M2 (Fizz1 and Ym1) markers; assay: In vivo LPS model: qPCR of M1 and M2 markers in wound tissue RNA; parameters: species or system mice; conditions: versus LPS/PBO control
Description: Female wild-type (C57BL/6J) 8 weeks old mice were split into six groups (6 animals per experimental group): • Double placebo control (no LPS, placebo treatment), • LPS control (LPS, placebo treatment), • LPS with topical EstroGel (estradiol gel, contains 0.06% 17β-estradiol as hemihydrate in a hydro-alcoholic gel), • LPS with topical AG24 (E4 at 0.5%), • LPS with topical AG25 (E4 at 0.22%), • LPS with topical AG26 (E4 at 0.06%). The day prior to wounding (day -1), all the animals were weighed and anaesthetised using oxygen and isoflurane (flow rate 1.25-2 L with 2-2.5% isoflurane depending on clinical signs). Animals were shaved and dorsal areas prepped. Wound positions (2 wounds) were marked on the dorsum of each animal. […] A thin layer of EstroGel, AG24, AG25, AG26 or placebo were then applied to the dorsum of each animal, measured as 60 μl total (30 μl/wound). […] For isolation of RNA and quantitative real time PCR murine macrophages were collected in Trizol and RNA was isolated using a Trizol plus RNA isolation kit (Invitrogen. Thermo Fisher) according to the manufacturer's instructions. […] Quantitative real-time PCR was carried out using 2×Takyon SYBR Green mastermix and a CFX Connect thermocycler. […]

## C[C@]12CC[C@@H]3c4ccc(O)cc4CC[C@H]3[C@@H]1[C@@H](O)[C@@H](O)[C@@H]2O [Formulation E4, 1,3,5 (10)-estratrien-3,15alpha, 16alpha, 17beta-tetrol]
[1]
  numbers of wound neutrophils: reduced numbers of wound neutrophils
[2]
  wound M1 marker expression (TNF-α, IL1-β): reduced M1 marker expression
  wound M2 marker expression (Fizz1, Ym1): increased M2 marker expression
